Measurements as given in US4596806A, “7-piperidino-1,2,3,5-tetrahydroimidazo[2,1-b]-quinazolin-2-one having platelet aggregation inhibitory activity” (Daiichi Seiyaku Co., Ltd., priority 1983, dated 1986).
Where two headings read alike, the source gives them in different places.

What was measured:
platelet aggregation [1] = assay: Test of Platelet Aggregation Inhibition (ex vivo; i.v.); design: species or system rat (male Wistar-Imamichi); conditions: Rattus norvegicus, iv, 0.25 h, 15 min, read-out: Platelet Aggregation Inhibitory Activity (in vivo: % inhibition); for inhibition at 0.02 mg/kg: i.v. 0.02 mg/Kg/min; for inhibition at 0.067 mg/kg: i.v. 0.067 mg/Kg/min
Experimental: As test animals, 5 male Wistar-Imamichi rats (body weight: about 270 g) that had been allowed food and water ad libitum were used per group. The test compound was dissolved in a physiological saline solution (J.P.) and continuously injected to the rats under anesthesia with pentobarbital through the femoral vein. 15 minutes later, citrated blood was taken from the heart, and platelet aggregation was determined in the same manner as in Test Example 2.

platelet aggregation [2] = assay: Test of Platelet Aggregation Inhibition (in vitro), human PRP; format: cell-based; conditions: for IC50: Homo sapiens, Platelet, human blood, read-out: Platelet Aggregation Inhibitory Activity (in vitro: IC50)
Experimental: The test was performed as follows in accordance with the method of Ashida et al, Thrombosis and Haemostasis, Vol. 40, p542 (1979).
Blood was taken by puncture from the heart of a Wistar Imamichi rat under anesthesia with pentobarbital into a syringe containing 1/10 volume of a 3.13% aqueous solution of sodium citrate dihydrate, and the citrated blood was centrifuged to obtain a platelet-rich-plasma (PRP). In the same manner, citrated blood was collected from the vein of a healthy human who had not taken aspirin or any other anti-inflammatory agent since before 10 days, followed by centrifugation to obtain PRP. 0.005 ml of each test compound was added to 0.445 ml each of these PRP samples, and the system was warmed at 30° C. for 1 minute. 0.05 ml of an aggregation inducer (ADP or collagen) was then added thereto, and platelet aggregation was determined according to the method of Born, Nature, Vol. 194, p927 (1962). The inhibitory activity of platelet aggregation was expressed in terms of 50% inhibition concentration, and the results obtained are shown in Table 2.

circulatory system = assay: Test of Influence on Circulatory System (blood pressure, heart beat); format: in vivo, rat (male normal SLC-Wistar); conditions: p.o. 50 mg/Kg
Experimental: 5 or 6 male normal SLC-Wistar rats per group (body weight: 205-255 g) orally received 50 mg/Kg of the test compound, and the blood pressure (tail cuff method) and the heart beats were measured with the passage of time in order to elucidate influences of the test compound on the circulatory system.

[3] = tested on: Water Immersion and Immobilization-induced Gastric Ulcer; assay: Effect on Water Immersion and Immobilization-induced Gastric Ulcer in Rats; format: in vivo, rat (Donryu male); conditions: p.o.
Experimental: Donryu male rats having a body weight of 352 to 414 g were subjected to the stress-induced gastric ulceration test by water-immersion and immobilization [Takagi and Okabe, Japan J. Pharmacol., 18, 9-18 (1968)] at a water temperature of 20° to 22° C. for 7 hours. Compound (I) was administered orally in the form of a suspension in a 0.5% aqueous CMC solution at a dose of 5 ml/Kg 30 minutes before loading the stress. After the test period, the rats were sacrificed and the hyperemic area and the erosious area on the stomach inside wall were measured to determine % inhibition of the ulcer.

platelet aggregation [4] = assay: Test of Platelet Aggregation Inhibition (ex vivo, p.o.); format: in vivo, rat (male Wistar Imamichi); conditions: for inhibition at 1 mg/kg / inhibition at 10 mg/kg: Rattus norvegicus, Platelet, po, 1 h, read-out: Platelet Aggregation Inhibitory Activity (ex vivo: % inhibition); for inhibition at 1 mg/kg: p.o. 1 mg/Kg; for inhibition at 10 mg/kg: p.o. 10 mg/Kg
Experimental: One hour later, citrated blood was taken from the heart, and platelet aggregation was determined in the same manner as described in Test Example 2.

[5] = tested on: pancreatic juice secretion; assay: Test of Stimulation on Pancreatic Juice Secretion in Dog; format: in vivo, dog (adult mongrel); conditions: for total output amount of bicarbonate ions as compared with the control: 30 minutes after administration; for Pancreatic Juice Secretion, Total: total 0-60 min; for total volume of pancreatic juice as compared with the control (100%): total after 60 minutes
Experimental: Adult mongrel dogs (male and female) having a body weight of 11.8 to 15.8 Kg were anesthetized with Nembutal and Phenobal and a cannula was inserted into pancreatic duct. A solution of Compound (I) dissolved in a physiological saline solution was administered intravenously from femoral vein at a dose of 0.5 ml/Kg. The volume of pancreatic juice was determined in a polyethylene tube connected to the cannula, and the bicarbonate ion concentration in the pancreatic juice was determined by neutralization titration. As a control, a physiological saline solution was administered intravenously.

**Q.** Which results are given for `O=C1CN2Cc3cc(N4CCCCC4)ccc3N=C2N1` [Compound (I), 7-piperidino-1,2,3,5-tetrahydroimidazo[2,1-b]quinazolin-2-one]?
**A.** inhibition at 0.02 mg/kg (platelet aggregation [1]; inducer ADP): 11%; inhibition at 0.02 mg/kg (platelet aggregation [1]; inducer collagen): 86%; inhibition at 0.067 mg/kg (platelet aggregation [1]; inducer ADP): 37%; inhibition at 0.067 mg/kg (platelet aggregation [1]; inducer collagen): 100%; IC50 (platelet aggregation [2]; inducer ADP): 2.5 µM; IC50 (platelet aggregation [2]; inducer collagen): 0.53 µM; anti-platelet aggregation activity (in words) (platelet aggregation [2]; in vitro, Table 2 results (human and rat PRP)): substantially equal to that of BL-3459 and BL-4162; reduction in blood pressure and increase in heart beat (in words) (circulatory system): relatively small and also these changes can be restored in short periods of time; Increase in Heart Beat (circulatory system; 1 hr after admin.): 27%; Reduction in Blood Pressure (circulatory system; 1 hr after admin.): 18%; Increase in Heart Beat (circulatory system; 2 hr after admin.): 32%; Reduction in Blood Pressure (circulatory system; 2 hr after admin.): 12%; Increase in Heart Beat (circulatory system; 3 hr after admin.): 27%; Reduction in Blood Pressure (circulatory system; 3 hr after admin.): 12%; Increase in Heart Beat (circulatory system; 5 hr after admin.): 25%; Reduction in Blood Pressure (circulatory system; 5 hr after admin.): 12%; Increase in Heart Beat (circulatory system; 6 hr after admin.): 17%; Reduction in Blood Pressure (circulatory system; 6 hr after admin.): 9%; Ulcer Index, Erosious Area ([3]; 30 mg/kg): 17.8 ± 5.7 mm; Ulcer Index, Erosious Area, Inhibition ([3]; 30 mg/kg): 32%; Ulcer Index, Hyperemic Area ([3]; 30 mg/kg): 19.4 ± 9.0 mm; Ulcer Index, Hyperemic Area, Inhibition ([3]; 30 mg/kg): 69%; Ulcer Index, Erosious Area ([3]; 100 mg/kg): 1.3 ± 0.8 mm; Ulcer Index, Erosious Area, Inhibition ([3]; 100 mg/kg): 95%; Ulcer Index, Hyperemic Area ([3]; 100 mg/kg): 0 mm; Ulcer Index, Hyperemic Area, Inhibition ([3]; 100 mg/kg): 100%; Ulcer Index, Erosious Area ([3]; 300 mg/kg): 2.6 ± 1.3 mm; Ulcer Index, Erosious Area, Inhibition ([3]; 300 mg/kg): 90%; Ulcer Index, Hyperemic Area ([3]; 300 mg/kg): 0 mm; Ulcer Index, Hyperemic Area, Inhibition ([3]; 300 mg/kg): 100%; inhibition at 1 mg/kg (platelet aggregation [4]; inducer ADP): 16.8%; inhibition at 1 mg/kg (platelet aggregation [4]; inducer collagen): 20.6%; inhibition at 10 mg/kg (platelet aggregation [4]; inducer ADP): 33.8%; inhibition at 10 mg/kg (platelet aggregation [4]; inducer collagen): 59.5%; aggregation inhibitory activity ex vivo (in words) (platelet aggregation [4]; p.o. 10 mg/Kg or 1 mg/Kg, ADP- or collagen-induced): significant aggregation inhibitory activity; total output amount of bicarbonate ions as compared with the control ([5]; 300 μg/Kg): 198%; bicarbonate ion concentration in pancreatic juice as compared with the control ([5]; 1000 μg/Kg): 266%; total output amount of bicarbonate ions as compared with the control ([5]; 1000 μg/Kg): 674%; bicarbonate ion concentration in pancreatic juice as compared with the control ([5]; i.v. 100 μg/Kg): 109%; total output amount of bicarbonate ions as compared with the control ([5]; i.v. 100 μg/Kg): 116%; Amount of Bicarbonate Ion Secretion ([5]; i.v. 100 μg/kg): 44.6 ± 9.3 µEq/h; Bicarbonate Ion Concentration ([5]; i.v. 100 μg/kg): 44.5 ± 6.1 mEq/l; activity on the pancreatic juice secretion (in words) ([5]; i.v. 100 μg/kg): did not show any significant activity; Pancreatic Juice Secretion ([5]; i.v. 100 μg/kg, 0-15 min): 323 ± 81 µL; Pancreatic Juice Secretion ([5]; i.v. 100 μg/kg, 15-30 min): 223 ± 45 µL; Pancreatic Juice Secretion ([5]; i.v. 100 μg/kg, 30-45 min): 178 ± 31 µL; Pancreatic Juice Secretion ([5]; i.v. 100 μg/kg, 45-60 min): 226 ± 48 µL; Pancreatic Juice Secretion, Total ([5]; i.v. 100 μg/kg): 950 ± 185 µL; bicarbonate ion concentration in pancreatic juice as compared with the control ([5]; i.v. 300 μg/Kg): 130%; total volume of pancreatic juice as compared with the control (100%) ([5]; i.v. 300 μg/Kg): 161%; Amount of Bicarbonate Ion Secretion ([5]; i.v. 300 μg/kg): 65.9 ± 9.6 µEq/h; Bicarbonate Ion Concentration ([5]; i.v. 300 μg/kg): 45.8 ± 2.1 mEq/l; Pancreatic Juice Secretion ([5]; i.v. 300 μg/kg, 0-15 min): 521 ± 112 µL; Pancreatic Juice Secretion ([5]; i.v. 300 μg/kg, 15-30 min): 321 ± 53 µL; Pancreatic Juice Secretion ([5]; i.v. 300 μg/kg, 30-45 min): 291 ± 44 µL; Pancreatic Juice Secretion ([5]; i.v. 300 μg/kg, 45-60 min): 310 ± 31 µL; pancreatic juice secretion as compared with the control (100%) ([5]; i.v. 300 μg/kg, after 15 minutes): 214%; Pancreatic Juice Secretion, Total ([5]; i.v. 300 μg/kg): 1444 ± 214 µL; total volume of pancreatic juice as compared with the control (100%) ([5]; i.v. 1000 μg/Kg): 254%; Amount of Bicarbonate Ion Secretion ([5]; i.v. 1000 μg/kg): 224 ± 24.7 µEq/h; Bicarbonate Ion Concentration ([5]; i.v. 1000 μg/kg): 79.8 ± 5.6 mEq/l; Pancreatic Juice Secretion ([5]; i.v. 1000 μg/kg, 0-15 min): 1363 ± 117 µL; Pancreatic Juice Secretion ([5]; i.v. 1000 μg/kg, 15-30 min): 573 ± 69 µL; Pancreatic Juice Secretion ([5]; i.v. 1000 μg/kg, 30-45 min): 455 ± 100 µL; Pancreatic Juice Secretion ([5]; i.v. 1000 μg/kg, 45-60 min): 414 ± 112 µL; pancreatic juice secretion as compared with the control (100%) ([5]; i.v. 1000 μg/kg, after 15 minutes): 440%; pancreatic juice secretion as compared with the control (100%) ([5]; i.v. 1000 μg/kg, after 30 minutes): 202%; Pancreatic Juice Secretion, Total ([5]; i.v. 1000 μg/kg): 2805 ± 225 µL
